Measurements: ChEMBL document CHEMBL1212903, “Neuroprotective xanthone glycosides from Swertia punicea” (2010)

Experiments:
PC-12 [1] = test: Neuroprotective activity in rat PC12 cells assessed as protection against H2O2-induced cell damage at 12.5 ug/ml after 1 hr by MTT assay relative to control; format: functional
PC-12 [2] = test: Neuroprotective activity in rat PC12 cells assessed as protection against H2O2-induced cell damage at 25 ug/ml after 1 hr by MTT assay relative to control; format: functional

Row | SMILES | Activity (PC-12 [1]) [%] | Activity (PC-12 [2]) [%]
1 | O=c1c2cc(O)c(O)cc2oc2c(-c3cc(O)c4oc5cc(O)cc(O)c5c(=O)c4c3O)c(O)c([C@@H]3O[C@H](CO)[C@@H](O)[C@H](O)[C@H]3O)c(O)c12 | 95.5 | 157.8
2 | CC1=NN(c2ccccc2)C(=O)C1 [EDARAVONE] | 74.3 | 86.9
3 | O=c1c2c(oc3cc(O)c(-c4cc(O)c5oc6cc(O)cc(O)c6c(=O)c5c4O)c(O)c13)[C@H](O)CC[C@@H]2O[C@@H]1O[C@H](CO)[C@@H](O)[C@H](O)[C@H]1O [PUNICEASIDE B] | 75.1 | 98.1
4 | O=c1c2c(O)c(-c3cc(O)c4oc5cc(O)cc(O)c5c(=O)c4c3O)c(O)cc2oc2c(O)ccc(O[C@@H]3O[C@H](CO)[C@@H](O)[C@H](O)[C@H]3O)c12 [swertiabisxanthone I] | 89.1 | 123
